Results: patent US6169091A, “Bicyclic heteroaromatic compounds as protein tyrosine kinase inhibitors” (Glaxo Wellcome Inc., priority 1995, dated 2001)
Structures can show the parent of a compound that is named as a salt.

Tests used:
[1] = stated without data, in contrast to the compounds of the invention; cited from earlier work
[2] = tested on: EGF receptor tyrosine kinase; details: Fry et al (Science, 265, 1093 (1994)); cited from earlier work
other tyrosine kinases = details: Fry et al (Science, 265, 1093 (1994)); cited from earlier work
HB4a ras cells = assay: cell proliferation assay, HB4a cells transfected with ras; format: cell-based; details: Homo sapiens, 96 h, 4 days at 37° C., methylene blue, 0.5% DMSO, control for general toxicity
Protocol: (§1) Compounds of the present invention were tested for protein tyrosine kinase inhibitory activity in a substrate phosphorylation assay and a cell proliferation assay. The cell proliferation assay uses an immortalised human breast epithelial cell line (HB4a) which has been transformed by over-expression of c-erbB-2. Growth of these cells in low serum is dependent upon the c-erbB-2 tyrosine kinase activity. The specificity of the effect of the test compounds on tyrosine kinase dependent growth over general toxicity is assessed by comparison to an HB4a cell line which has been transfected with ras. Cells are plated at 3000/well in 96-well plates in 0.1 ml medium and allowed to attach overnight. test compound is added in 0.1 ml medium, with a final concentration of 0.5% DMSO, and the plates incubated for 4 days at 37° C. The cells are then examined microscopically for evidence of morphological detransformation and cell mass is estimated by staining with methylene blue and measuring the absorbance at 620 nm. The results are shown in the second and third columns of Table 1 below as the IC50 values in nM.

HB4a erbB-2 cells = assay: cell proliferation assay, HB4a cells transformed by over-expression of c-erbB-2; format: cell-based; details: Homo sapiens, 96 h, low serum, 4 days at 37° C., methylene blue, 0.5% DMSO
Protocol: as §1

c-erbB-2 = biological target: T1, c-erbB-2 (Homo sapiens, UniProt P04626); assay: c-erbB-2 substrate phosphorylation assay (33P-labelled γ-phosphate from ATP onto PolyGluAlaTyr); format: biochemical; details: 1 hour, room temperature, 100 μM ATP, 10 mM MnCl2, pH 7.4, 2% DMSO; recombinant intracellular domain of c-erbB-2
T1 construct: recombinant construct of the intracellular domain of c-erbB-2 that is constitutively active; made in house
Protocol: Compounds of the present invention were tested for protein tyrosine kinase inhibitory activity in a substrate phosphorylation assay and a cell proliferation assay. The substrate phosphorylation assay uses a baculovirus expressed, recombinant construct of the intracellular domain of c-erbB-2 that is constitutively active. […] The reaction is stopped by the addition of EDTA (final concentration 0.1M) and the peptide is then precipitated onto ion exchange filter paper and the incorporated radioactivity determined. The results are shown in the first column of Table 1 below as the IC50 values in nM.

T1 sequence (P04626 676-1255 limits assumed): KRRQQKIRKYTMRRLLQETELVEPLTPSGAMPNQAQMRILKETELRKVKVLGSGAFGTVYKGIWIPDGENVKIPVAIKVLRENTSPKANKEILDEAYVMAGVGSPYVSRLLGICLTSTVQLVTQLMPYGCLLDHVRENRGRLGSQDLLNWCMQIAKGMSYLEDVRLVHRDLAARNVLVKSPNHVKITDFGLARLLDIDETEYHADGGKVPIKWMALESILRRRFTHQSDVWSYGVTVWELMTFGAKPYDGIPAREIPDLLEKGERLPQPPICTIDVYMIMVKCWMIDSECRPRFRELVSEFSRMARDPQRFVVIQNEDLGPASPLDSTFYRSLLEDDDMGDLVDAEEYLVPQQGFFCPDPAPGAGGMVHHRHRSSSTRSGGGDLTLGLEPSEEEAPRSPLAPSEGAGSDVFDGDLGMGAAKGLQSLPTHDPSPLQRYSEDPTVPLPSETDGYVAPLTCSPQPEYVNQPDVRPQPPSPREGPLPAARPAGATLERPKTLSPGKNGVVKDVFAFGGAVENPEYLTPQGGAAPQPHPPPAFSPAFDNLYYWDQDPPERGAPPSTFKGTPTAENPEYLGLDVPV

Row | Structure (SMILES) | in vivo activity [1] | inhibition of the EGF receptor tyrosine kinase [2] | inhibition of other tyrosine kinases (other tyrosine kinases) | IC50 (HB4a ras cells) [µM] | IC50 (HB4a erbB-2 cells) [µM] | IC50 (c-erbB-2) [µM]
1 | COc1cc2ncnc(Nc3cccc(Br)c3)c2cc1OC | does not however exhibit good in vivo activity | picomolar concentrations | micromolar or higher concentrations | – | – | –
2 | Clc1cc2c(Nc3ccc(OCc4ccccc4)cc3)ncnc2cn1 [Example 1, 4-(4-Benzyloxyanilino)-6-chloropyrido[3,4-]pyrimidine hydrochloride] | – | – | – | 17 | 2.7 | 0.058
3 | Cn1cncc1-c1cc2c(Nc3ccc(OCc4ccccc4)cc3)ncnc2cn1 [Example 2, 4-(4-Benzyloxyanilino)-6-(N-methylimidazol-5-yl)pyrido[3,4-d]pyrimidine] | – | – | – | 3.7 | 0.69 | 0.026
4 | Cn1ccnc1-c1cc2c(Nc3ccc(OCc4ccccc4)cc3)ncnc2cn1 [Example 3, 4-(4-Benzyloxyanilino)-6-(N-methylimidazol-2-yl)pyrido[3,4-d]pyrimidine] | – | – | – | 44 | 11 | 0.115
5 | Cn1nccc1-c1cc2c(Nc3ccc(OCc4ccccc4)cc3)ncnc2cn1 [Example 4, 4-(4-Benzyloxyanilino)-6-(N-methylpyrazol-2-yl)pyrido[3,4-d]pyrimidine] | – | – | – | 11 | 2.5 | 0.124
6 | c1ccc(COc2ccc(Nc3ncnc4cnc(-c5ccco5)cc34)cc2)cc1 [Example 5, 4-(4-Benzyloxyanilino)-6-(furan-2-yl)pyrido[3,4-d]pyrimidine] | – | – | – | 11 | 0.5 | 0.014
7 | CN(C)c1cc2c(Nc3ccc(OCc4ccccc4)cc3)ncnc2cn1 [Example 7, 4-(4-Benzyloxyanilino)-6-(N,N-dimethylamino)pyrido[3,4-d]pyrimidine] | – | – | – | > 50 | 0.3 | 0.0013
8 | CN1CCN(c2cc3c(Nc4ccc(OCc5ccccc5)cc4)ncnc3cn2)CC1 [Example 8, 4-(4-Benzyloxyanilino)-6-(1-methylpiperazin-4-yl)-pyrido[3,4-d]pyrimidine] | – | – | – | 7.5 | 0.59 | 0.02
9 | O=S1(=O)CCN(c2cc3c(Nc4ccc(OCc5ccccc5)cc4)ncnc3cn2)CC1 [Example 11, 4-(4-Benzyloxyanilino)-6-(thiomorpholine-1,1-dioxide-4-yl)-pyrido[3,4-d]pyrimidine] | – | – | – | 37 | 10 | 0.92
10 | CN(C)c1cc2c(Nc3ccc(Oc4ccccc4)cc3)ncnc2cn1 [Example 12, 6-N,N-Dimethylamino-4-(4-phenoxyanilino)pyrido[3,4-d]pyrimidine] | – | – | – | 31 | 1.6 | 0.024
11 | O=S(=O)(c1ccccc1)c1ccc(Nc2ncnc3cnc(Cl)cc23)cc1 [Example 14, 6-Chloro-4-(4-phenylsulphonylanilino)pyrido[3,4-d]pyrimidine hydochloride] | – | – | – | 50 | 15 | 0.9
12 | CN(C)c1cc2c(Nc3ccc(S(=O)(=O)c4ccccc4)cc3)ncnc2cn1 [Example 15, 6-(N,N-Dimethylamino)-4-(4-phenylsulphonylanilino)pyrido[3,4-d]pyrimidine] | – | – | – | 32 | 0.57 | 0.03
13 | CN1CCN(c2cc3c(Nc4ccc(S(=O)(=O)c5ccccc5)cc4)ncnc3cn2)CC1 [Example 16, 6-(1-Methylpiperazin-4-yl)-4-(4-phenylsulphonylanilino)-pyrido[3,4-d]pyrimidine] | – | – | – | 6.6 | 2.4 | 0.05
14 | CN(C)CCN(C)c1cc2c(Nc3ccc(S(=O)(=O)c4ccccc4)cc3)ncnc2cn1 [Example 17, 6-[N-Methyl-N-(2-dimethylaminoethyl)amino]-4-(4-phenylsulphonylanilino)-pyrido[3,4-d]pyrimidine] | – | – | – | 10 | 4.4 | 0.2
15 | CN(CCO)c1cc2c(Nc3ccc(S(=O)(=O)c4ccccc4)cc3)ncnc2cn1 [Example 18, 6-[N-Methyl-N-(2-hydroxyethyl)amino]-4-(4-phenylsulphonylanilino)pyrido[3,4-d]pyrimidine] | – | – | – | 28 | 0.15 | 0.005
16 | CN(C)c1cc2c(Nc3ccc(OCC4OCCO4)cc3)ncnc2cn1 [Example 20, 6-(N,N-Dimethylamino)-4-[4-(1,3-dioxolan-2-yl)methoxyanilino]pyrido[3,4-d]pyrimidine] | – | – | – | 46 | 2.4 | 0.01
17 | c1ccc(COc2ccc(Nc3ncnc4ccsc34)cc2)cc1 [Example 23, 4-(4-Benzyloxyanilino)thieno[3,2-d]pyrimidine hydrochloride] | – | – | – | 5 | 2 | 0.3
18 | COc1ccccc1COc1ccc(Nc2ncnc3ccsc23)cc1Cl [Example 24, 4-[3-Chloro-4-(2-methoxybenzyloxy)anilino]thieno[3,2-d]pyrimidine hydrochloride] | – | – | – | 18 | 10 | 0.05
19 | Fc1ccccc1COc1ccc(Nc2ncnc3ccsc23)cc1Cl [Example 25, 4-[3-Chloro-4-(2-fluorobenzyloxy)anilino]thieno[3,2-d]pyrimidine hydrochloride] | – | – | – | 3 | 0.5 | 0.15
20 | Clc1cc(Nc2ncnc3ccsc23)ccc1OCc1ccccc1Br [Example 26, 4-[4-(2-Bromobenzyloxy)-3-chloroanilino]thieno[3,2-d]pyrimidine hydrochloride] | – | – | – | 30 | 2.5 | 0.23
21 | c1ccc(Cc2ccc(Nc3ncnc4ccsc34)cc2)cc1 [Example 28, 4-(4-Benzylanilino)thieno[3,2-d]pyrimidine hydrochloride] | – | – | – | 13 | 3 | 0.2
22 | c1ccc(Oc2ccc(Nc3ncnc4ccsc34)cc2)cc1 [Example 29, 4-(4-Phenoxyanilino)thieno[3,2-d]pyrimidine hydrochloride] | – | – | – | 20 | 5 | 0.11
23 | FC(F)(Oc1ccc(Nc2ncnc3ccsc23)cc1)c1ccccc1 [Example 30, 4-(4-(a,a-Difluorobenzyloxy)anilino)thieno[3,2-d]pyrimidine hydrochloride] | – | – | – | 15 | 6 | 0.86
24 | Cc1csc2ncnc(Nc3ccc(OCc4ccccc4F)c(Cl)c3)c12 [Example 35, 4-[3-Chloro-4-(2-fluorobenzyloxy)anilino]-5-methylthieno[2,3-d]pyrimidine hydrochloride] | – | – | – | 25 | 8 | 0.099
25 | Cc1csc2ncnc(Nc3ccc(OCC4CCCCC4)cc3)c12 [Example 36, 4-(4-Cyclohexylmethoxyanilino)-5-methylthieno[2,3-d]pyrimidine hydrochloride] | – | – | – | 10 | 10 | 0.5
26 | Cc1csc2ncnc(Nc3ccc(Oc4ccccc4)cc3)c12 [Example 37, 5-Methyl4-(4-phenoxyanilino)thieno[2,3-d]pyrimidine hydrochloride] | – | – | – | 25 | 17 | 0.65
27 | c1ccc(Oc2ccc(Nc3ncnc4scc(-c5cccs5)c34)cc2)cc1 [Example 38, 4-(4-Phenoxyanilino)-5-(2-thienyl)thieno[2,3-d]pyrimidine hydrochloride] | – | – | – | 20 | 20 | 0.49
